Reference: patent US12680081B2, “Human induced pluripotent stem cell line transformed with fluorescent protein-labeled cytochrome P450 and AHR modulator screening method using same” (priority 2020, dated 2026)
Structures can show the parent of a compound that is named as a salt.

How the values were obtained:
CYP1A1 = experiment: Ethoxyresorufin-O-deethylase (EROD) analysis of CYP1A1 activity in CYP1A1-mCherry HLCs; conditions: for inhibition of the effect of TCDD on CYP1A1 activity: FIG. 10d
Procedure: Ethoxyresorufin-O-Deetylase (EROD) Analysis
To measure the CYP1A1 activity, cells were cultured in a serum-free medium for 24 hours before treatment. The cells were treated with 7.5 μM ethoxyresorufin in the presence or absence of 10 μM dicumarol (inhibitor) in HBSS for 7.5, 15, 30 and 60 minutes, and 100 μl of the medium was removed into a new microcentrifuge tube. The same amount (100 μl) of ice-cold acetonitrile-methanol was added to the removed medium, followed by brief vortexing and centrifugation at 16,000×g for 5 minutes at 4° C. The supernatant was used for the following analysis. The level of the metabolite resorufin was measured by high-performance liquid chromatography (HPLC) with a Luna C18 column (4.6×150 mm, 5 μm; Phenomenex, Seoul, Korea). The moving phase was composed of 20 mM phosphate buffer-methanol-acetonitrile (52:45:3, v/v/v), and the flow rate was 0.8 ml/minute. Fluorescence was measured at an excitation wavelength of 560 nm and an emission wavelength of 585 nm. Concentrations were calculated using a standard curve for resorufin normalized by the total cellular protein content measured using a BCA protein analysis kit (Thermo Fisher Scientific).

CYP1A1-mCherry HLC = experiment: Cell viability analysis (cell counting Kit-8); type: cell-based; conditions: working concentration 10 μM, 24 hours, FIG. 10b
Procedure: 11. Cell Viability Analysis
To analyze cell viability, target chemicals (10 μM) were treated for 24 hours prior to performing cell viability analysis. Then, 10 μl of cell counting Kit-8 was added to 100 μl of the medium, followed by incubation for 2 hours. Absorbance was measured at 450 nm using an iMark™ microplate absorbance reader (Bio-Rad). Cell viability was calculated using the following formula: Cell viability (%)=(Asample−Ablank)/(Acontrol−Ablank)×100

AHR-CYP1A1 axis = experiment: High-content screening (HCS) of mCherry intensity in live CYP1A1-mCherry HLCs; conditions: for inhibition of the effect of TCDD on mCherry expression: human
Procedure: 9. Chemical Treatment and High-Content Screening (HCS)
To perform HCS, the cells differentiated for 10 days were dissociated, plated in a Matrigel®-coated 96-well plate, and cultured for maturation. […] DMSO was used as a vehicle control. For staining the live cell nucleus, cells were cultured with 2 μg/ml of Hoechst 33342 (Life Technologies) for 10 minutes. Stained cells were imaged using ImageXpress Micro XLS Widefield High-Content Analysis System (Molecular Devices, San Jose, Calif., USA). The acquired images were analyzed using MetaXpress High-Content Image Acquisition and Analysis Software (Molecular Devices) according to disclosed methods. For analysis, cells were first identified using Hoechst staining and mCherry intensity was detected to measure CYP1A1 expression.

CYP1A1 mRNA = tested on: CYP1A1 mRNA
Procedure: 8. Quantitative Reverse Transcription PCR (RT-qPCR)
Total RNA was extracted from each sample using NucleoZOL reagent (Macherey-Nagel, Duren, Germany) and reverse transcription was performed using GoScript™ reverse transcription mix (Promega) according to the manufacturer's protocol. RT-qPCR was performed with SYBR Green Realtime PCR Master Mix (TOYOBO, Osaka, Japan) in StepOnePlus Real-Time PCR system (Applied Biosystems, Foster City, Calif., USA). PCR amplification was performed in triplicate for each sample. PCR results were expressed as relative fold change compared to the control cells after normalization with glyceraldehyde-3-phosphate dehydrogenase (GAPDH). The ΔCt (SΔCt) value was calculated as the difference between the Ct value obtained for GAPDH and the target gene. The ΔCt value of the control cells was used as the control ΔCt (CΔCt) value. The relative gene expression level was determined using the following formula: 2−(SΔCt−CΔCt).
After preparing cells for RNA extraction, RT-qPCR analysis for the expression of CYP1A1 mRNA was performed according to the above procedure. Dose-response curves were created by the least squares fitting method using GraphPad Prism 5 (GraphPad, San Diego, Calif., USA).

mouse AHR = target: T1, mouse AHR (Mus musculus, UniProt P30561); conditions: mouse AHR higher than human AHR; cited from earlier work
T1 sequence (P30561 10-848): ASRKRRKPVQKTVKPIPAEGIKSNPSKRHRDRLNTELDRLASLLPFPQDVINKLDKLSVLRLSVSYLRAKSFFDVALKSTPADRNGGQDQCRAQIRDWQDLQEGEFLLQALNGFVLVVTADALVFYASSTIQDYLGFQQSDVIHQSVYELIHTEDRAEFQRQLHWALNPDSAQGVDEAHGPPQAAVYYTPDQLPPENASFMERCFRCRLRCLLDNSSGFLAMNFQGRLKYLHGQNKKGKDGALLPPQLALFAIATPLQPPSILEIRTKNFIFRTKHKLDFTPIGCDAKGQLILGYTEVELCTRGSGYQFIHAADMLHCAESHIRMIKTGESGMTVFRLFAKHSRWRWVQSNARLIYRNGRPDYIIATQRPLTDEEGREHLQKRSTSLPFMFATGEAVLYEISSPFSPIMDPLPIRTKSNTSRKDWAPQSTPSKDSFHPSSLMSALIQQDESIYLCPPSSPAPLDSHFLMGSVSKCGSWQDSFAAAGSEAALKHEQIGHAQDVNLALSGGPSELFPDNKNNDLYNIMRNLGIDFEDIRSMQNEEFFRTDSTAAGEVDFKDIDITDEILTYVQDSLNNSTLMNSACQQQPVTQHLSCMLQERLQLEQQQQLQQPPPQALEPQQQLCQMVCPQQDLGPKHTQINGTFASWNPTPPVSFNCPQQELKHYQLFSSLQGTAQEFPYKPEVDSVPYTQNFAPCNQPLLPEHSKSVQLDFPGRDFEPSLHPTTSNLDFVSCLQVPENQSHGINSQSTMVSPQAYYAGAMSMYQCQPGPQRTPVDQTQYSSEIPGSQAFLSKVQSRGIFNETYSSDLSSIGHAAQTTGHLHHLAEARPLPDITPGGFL

In the case of `COc1ccc(/C=C/c2cc(OC)cc(=O)o2)cc1` [2-E05, yangonin], the “inhibition of the effect of TCDD on CYP1A1 activity” value (CYP1A1) is reported as “at the levels of the non-treated control and CH223191”, the “cell death (cell viability)” value (CYP1A1-mCherry HLC) is reported as “without cell death” and the “mCherry intensity compared to CH223191 and TMF” value (AHR-CYP1A1 axis) is reported as “significant decrease”. The “inhibition of the effect of TCDD on mCherry expression” value (AHR-CYP1A1 axis) was “at the levels of the non-treated control and CH223191”.
In the case of `COc1cc(/C=C/c2ccccc2)oc(=O)c1` [2-E06, desmethoxyyangonin], the “inhibition of the effect of TCDD on CYP1A1 activity” value (CYP1A1) is reported as “at the levels of the non-treated control and CH223191”, the “cell death (cell viability)” value (CYP1A1-mCherry HLC) is reported as “without cell death” and the “mCherry intensity compared to CH223191 and TMF” value (AHR-CYP1A1 axis) is reported as “significant decrease”. For the same molecule, the “inhibition of the effect of TCDD on mCherry expression” value (AHR-CYP1A1 axis) was “at the levels of the non-treated control and CH223191”.
For `Cc1ccccc1N=Nc1ccc(NC(=O)c2ccnn2C)c(C)c1` [CH223191], the “transcript expression levels of CYP1A1 and mCherry” value (CYP1A1 mRNA; co-treatment with BaP or TCDD, FIG. 7b) was “reduced”.
In the case of `Clc1cc2c(cc1Cl)Oc1cc(Cl)c(Cl)cc1O2` [TCDD, 2,3,7,8-tetrachlorodibenzo-p-dioxin], the CYP1A1 activity (CYP1A1; 60 minutes, FIG. 6b) is given as “increased”, the “affinity of mouse AHR with TCDD compared to human AHR” value (mouse AHR) is given as 10 fold and the “mCherry intensity after treatment” value (AHR-CYP1A1 axis; CYP1A1-mCherry HLC, AHR agonist treatment, FIG. 6a) is given as “time-dependent increase”.
For `O=C(OCC(O)CO)c1ccccc1Nc1ccnc2cc(Cl)ccc12` (centres unmarked) [glafenine], the “concentration of maximal induction” value (CYP1A1 mRNA) was “maximal induction at the concentrations used for screening” and the “increase according to the dose (dose-response, CYP1A1 mRNA)” value (CYP1A1 mRNA; human) was 6- to 7 fold.
In the case of `CC(Cc1ccc(O)c(O)c1)C(C)Cc1ccc(O)c(O)c1` (centres unmarked) [nordihydroguaiaretic acid], the “effect according to the dose (dose-response, CYP1A1 mRNA)” value (CYP1A1 mRNA; human, 24 h) is reported as ~ 2 times.
In the case of `COc1ccc(Cc2nccc3cc(OC)c(OC)cc23)cc1OC` [papaverine hydrochloride], the “concentration of maximal induction” value (CYP1A1 mRNA) is reported as “maximal induction at the concentrations used for screening” and the “increase according to the dose (dose-response, CYP1A1 mRNA)” value (CYP1A1 mRNA; human) is reported as 6- to 7 fold.
